{
  "source": "patent US11110195B2",
  "about": "“Esculentin 1a derivatives and uses thereof” (University of Houston System, priority 2013, dated 2021)",
  "key": {"[1]": {"tested_on": "A549 lung epithelial cells", "test": "Wound healing assay, A549 lung epithelial cells", "type": "cell-based, human", "conditions": "A549 monolayer", "experimental": "The percentage of cell-covered area at each time point is reported on the y-axis. Control (Ctrl) represents cells not treated with the peptides. All data are the mean of at least three independent experiments ±SEM. […] Both peptides were able to stimulate the closure of the gap produced in the monolayer of A549 cells, with the optimal concentration allowing the almost complete coverage of the wound field equal to 10 μM (for the wild type peptide, FIG. 13A) or 4 μM (for the diastereomer, FIG. 13B) within approximately 24 hours or 20 hours, respectively.\nAs shown in FIGS. 13A-13B, Esc-1a(1-21)NH2 and its diastereomer both stimulated wound closure although at concentrations much higher than were required to induce a similar effect in human corneal epithelial cells. This may reflect cell specific differences."}, "P. aeruginosa ATCC 27853": {"tested_on": "P. aeruginosa ATCC 27853", "test": "Bactericidal activity in the presence of salt (NaCl)", "type": "cell-based, Pseudomonas aeruginosa", "conditions": "150 mM NaCl, 37° C., 20 min", "experimental": "FIGS. 1A-1B show the effects of salt on the bactericidal activity of Esc-1a(1-21)NH2 against P. aeruginosa ATCC 27853. FIG. 1A: Bacterial cells were incubated with different concentrations of Esc-1a(1-21)NH2 in the presence of 150 mM NaCl for 20 minutes at 37° C. Mean data from three experiments, expressed as the percentage of bacteria killed by the peptide with respect to the control sample (bacteria not treated with the peptide) are reported. FIG. 1B: Bacterial cells were incubated with the peptide (1 μM) in the absence or in the presence of varying concentrations of NaCl at 37° C. for 20 minutes. Mean data from three experiments, expressed as the percentage of bacteria killed by the peptide with respect to the control sample (bacteria not treated with the peptide) are reported.\nOwing to their mode of action, the antimicrobial activity of antimicrobial peptides may be reduced in the presence of salt. […] In FIG. 1B, 2×10^6 CFU/ml P. aeruginosa (ATCC 27853) were incubated with 1 μM Esc-1a(1-21)NH2 in the presence of increasing amounts of NaCl at 37° C. for 20 minutes then aliquots plated and counted (n=3). Concentrations of Esc-1a(1-21)NH2 at 0.68 μM and above fully retained activity in 150 mM NaCl, the physiological salt concentration at the ocular surface."}},
  "note": "Residues, ends and D or L forms follow the SMILES beside them.",
  "data": [
    {"smiles": "CC[C@H](C)[C@H](NC(=O)CN)C(=O)N[C@@H](Cc1ccccc1)C(=O)N[C@@H](CO)C(=O)N[C@@H](CCCCN)C(=O)N[C@@H](CC(C)C)C(=O)N[C@@H](C)C(=O)NCC(=O)N[C@@H](CCCCN)C(=O)N[C@@H](CCCCN)C(=O)N[C@H](C(=O)N[C@@H](CCCCN)C(=O)N[C@@H](CC(N)=O)C(=O)N[C@@H](CC(C)C)C(=O)N[C@@H](CC(C)C)C(=O)N[C@H](C(=O)N[C@@H](CO)C(=O)NCC(=O)N[C@@H](CC(C)C)C(=O)N[C@@H](CCCCN)C(=O)NCC(N)=O)[C@@H](C)CC)[C@@H](C)CC", "note": "[Esc-1a(1-21)NH2] (H-GIFSKLAGKKIKNLLISGLKG-NH2; N-terminus assumed)", "values": [
      {"measurement": "optimal concentration allowing almost complete coverage of the wound field", "setting": "[1]", "value": 10, "unit": "µM"},
      {"measurement": "time to almost complete coverage of the wound field", "setting": "[1]; at optimal concentration", "value": "approximately 24 hours"},
      {"measurement": "Peptide concentration fully retaining bactericidal activity", "setting": "P. aeruginosa ATCC 27853", "value": "≥ 0.68", "unit": "µM"}
    ]}
  ]
}
